# Reference: ChEMBL document CHEMBL6153083, “Synthesis, Structural Modification, and Antismall Cell Lung Cancer Activity of 3-Arylisoquinolines with Dual Inhibitory Activity on Topoisomerase I and II” (J Med Chem, 2025)
# Active and inactive are the calls of the source. No cut-off for these calls is given here.
# Tests used:
# [1] = Antiproliferative activity against human NCI-H196 cells incubated for 72 hrs; assay type: functional, cell-based; conditions: NCI-H196, 72 h
# NCI-H1048 [2] = assay: Antiproliferative activity against human NCI-H1048 cells incubated for 72 hrs; assay type: functional, cell-based; conditions: NCI-H1048, 72 h
# NCI-H1048 [3] = assay: Inhibition of cell proliferation in human NCI-H1048 cells incubated for 24 hrs by EdU incorporation assay; assay type: functional, cell-based; conditions: dose 0.375-3 µM
# [4] = AUC (0 to t) in Sprague-Dawley rat at 10 mg/kg, ip measured after 24 hrs by LC-MS/MS analysis; assay type: ADME, organism-based; conditions: in vivo
# [5] = Half life in Sprague-Dawley rat at 10 mg/kg, ip measured after 24 hrs by LC-MS/MS analysis; assay type: ADME, organism-based; conditions: in vivo
# NCI-H1048 [6] = assay: Inhibition of cell migration in human NCI-H1048 cells incubated for 24 hrs by transwell assay; assay type: functional, cell-based; conditions: dose 0.375-3 µM
# [7] = Toxicity in BALB/c nude mouse xenografted with human NCI-H446 cells assessed as body weight change at 10 to 20 mg/kg, ip for 21 days; assay type: organism-based; conditions: in vivo, 504 h, dose 10-20 mg/kg, time 21 day
# [8] = Acute toxicity in Kunming mouse assessed as animal death at 400 mg/kg, ip; assay type: organism-based; conditions: in vivo
# NCI-H1048 [9] = assay: Induction of apoptosis in human NCI-H1048 cells assessed as decrease in Bcl-2 level incubated for 48 hrs by Western blot analysis; assay type: functional, cell-based
# [10] = MRT (0 to infinity) in Sprague-Dawley rat at 10 mg/kg, ip measured after 24 hrs by LC-MS/MS analysis; assay type: ADME, organism-based; conditions: in vivo
# NCI-H146 = assay: Antiproliferative activity against human NCI-H146 cells incubated for 72 hrs; assay type: functional, cell-based; conditions: NCI-H146, 72 h
# NCI-H1048 [11] = assay: Inhibition of cell migration in human NCI-H1048 cells incubated for 24 hrs by wound-healing assay; assay type: functional, cell-based; conditions: dose 0.375-3 µM
# [12] = Toxicity in BALB/c nude mouse xenografted with human NCI-H446 cells assessed as deleterious effect in liver at 10 to 20 mg/kg, ip for 21 days by H and E staining based analysis; assay type: organism-based; conditions: in vivo, 504 h, dose 10-20 mg/kg, time 21 day
# NCI-H446 [13] = assay: Induction of apoptosis in human NCI-H446 cells assessed as reduction in cell viability incubated for 48 hrs by Geimsa staining based analysis; assay type: functional; conditions: dose 1-8 µM
# [14] = AUC (0 to infinity) in Sprague-Dawley rat at 10 mg/kg, ip measured after 24 hrs by LC-MS/MS analysis; assay type: ADME, organism-based; conditions: in vivo
# NCI-H1048 [15] = assay: Inhibition of clonogenesis in human NCI-H1048 cells incubated for 14 to 21 days by crystal violet staining based analysis; assay type: functional, cell-based; conditions: dose 0.375-3 µM, time 14-21 day
# [16] = Toxicity in BALB/c nude mouse xenografted with human NCI-H446 cells assessed as deleterious effect in lungs at 10 to 20 mg/kg, ip for 21 days by H and E staining based analysis; assay type: organism-based; conditions: in vivo, 504 h, dose 10-20 mg/kg, time 21 day
# NCI-H446 [17] = assay: Induction of apoptosis in human NCI-H446 cells assessed as decrease in Bcl-2 level incubated for 48 hrs by Western blot analysis; assay type: functional, cell-based; conditions: dose 1-8 µM
# NCI-H446 [18] = assay: Induction of apoptosis in human NCI-H446 cells assessed as increase in cleaved caspase-9 level incubated for 48 hrs by Western blot analysis; assay type: functional, cell-based; conditions: dose 1-8 µM
# [19] = Acute toxicity in Kunming mouse assessed as lethal dose; conditions: in vivo
# NCI-H1048 [20] = assay: Induction of DNA damage in human NCI-H1048 cells incubated for 48 hrs by comet assay; assay type: functional, cell-based; conditions: dose 1-8 µM
# NCI-H446 [21] = assay: Induction of apoptosis in human NCI-H446 cells assessed as formation of membrane blebbing at 1 to 8 uM incubated for 48 hrs by Geimsa staining based analysis; assay type: functional, cell-based; conditions: dose 1-8 µM
# NCI-H82 = assay: Antiproliferative activity against human NCI-H82 cells incubated for 72 hrs; assay type: functional, cell-based; conditions: NCI-H82, 72 h
# NCI-H1048 [22] = assay: Induction of cell cycle arrest in human NCI-H1048 cells assessed as accumulation at S phase incubated for 48 hrs by PI staining based flow cytometry; assay type: functional
# [23] = Inhibition of PI3K/AKT/mTOR signalling pathway in human NCI-H446 cells assessed as decrease in mTOR level at 1 to 8 uM incubated for 48 hrs by Western blot analysis; assay type: cell-based; conditions: dose 1-8 µM
# NCI-H446 [24] = assay: Antitumor activity against human NCI-H446 cells xenografted in BALB/c nude mouse assessed as decrease in tumor volume at 10 to 20 mg/kg, ip for 21 days; assay type: functional, organism-based; conditions: dose 10-20 mg/kg, time 21.0 day
# Homo sapiens = species on record: Homo sapiens; assay: Inhibition of Topo II (unknown origin) relaxation activity using pBR322 plasmid DNA as substrate at 25 to 100 uM incubated for 30 mins in presence of ATP; conditions: dose 25-100 µM
# NCI-H1048 [25] = assay: Induction of apoptosis in human NCI-H1048 cells assessed as increase in cleaved caspase-9 level incubated for 48 hrs by Western blot analysis; assay type: functional, cell-based
# NCI-H446 [26] = assay: Inhibition of cell migration in human NCI-H446 cells incubated for 24 hrs by transwell assay; assay type: functional, cell-based; conditions: dose 0.375-3 µM
# NCI-H446 [27] = assay: Induction of cell cycle arrest in human NCI-H446 cells assessed as accumulation at S phase incubated for 48 hrs by PI staining based flow cytometry; assay type: functional; conditions: dose 1-8 µM
# NCI-H446 [28] = assay: Antiproliferative activity against human NCI-H446 cells incubated for 72 hrs; assay type: functional, cell-based; conditions: NCI-H446, 72 h
# NCI-H446 [29] = assay: Induction of apoptosis in human NCI-H446 cells assessed as increase in Bax level incubated for 48 hrs by Western blot analysis; assay type: functional, cell-based; conditions: dose 1-8 µM
# NCI-H446 [30] = assay: Induction of mitochondrial dysfunction in human NCI-H446 cells assessed as increase in ROS level at 1 to 8 uM incubated for 48 hrs by DCFH-DA staining based flow cytometry; assay type: functional, cell-based; conditions: dose 1-8 µM
# [31] = Acute toxicity in Kunming mouse assessed as change in body weight at 300 mg/kg, ip measured for 10 days; assay type: organism-based; conditions: in vivo, 240 h, time 10 day
# [32] = Toxicity in BALB/c nude mouse xenografted with human NCI-H446 cells assessed as deleterious effect in heart at 10 to 20 mg/kg, ip for 21 days by H and E staining based analysis; assay type: organism-based; conditions: in vivo, 504 h, dose 10-20 mg/kg, time 21 day
# [33] = Cmax in Sprague-Dawley rat at 10 mg/kg, ip measured after 24 hrs by LC-MS/MS analysis; assay type: ADME, organism-based; conditions: in vivo
# NCI-H446 [34] = assay: Inhibition of cell migration in human NCI-H446 cells incubated for 24 hrs by wound-healing assay; assay type: functional, cell-based; conditions: dose 0.375-3 µM
# NCI-H446 [35] = assay: Induction of DNA damage in human NCI-H446 cells incubated for 48 hrs by comet assay; assay type: functional, cell-based; conditions: dose 1-8 µM
# [36] = Toxicity in BALB/c nude mouse xenografted with human NCI-H446 cells assessed as deleterious effect in spleen at 10 to 20 mg/kg, ip for 21 days by H and E staining based analysis; assay type: organism-based; conditions: in vivo, 504 h, dose 10-20 mg/kg, time 21 day
# NCI-H446 [37] = assay: Induction of apoptosis in human NCI-H446 cells assessed as increase in cleaved caspase-3 level incubated for 48 hrs by Western blot analysis; assay type: functional, cell-based; conditions: dose 1-8 µM
# [38] = Inhibition of PI3K/AKT/mTOR signalling pathway in human NCI-H446 cells assessed as decrease in AKT level at 1 to 8 uM incubated for 48 hrs by Western blot analysis; assay type: cell-based; conditions: dose 1-8 µM
# NCI-H209 = assay: Antiproliferative activity against human NCI-H209 cells incubated for 72 hrs; assay type: functional, cell-based; conditions: NCI-H209, 72 h
# [39] = Tmax in Sprague-Dawley rat at 10 mg/kg, ip measured after 24 hrs by LC-MS/MS analysis; assay type: ADME, organism-based; conditions: in vivo
smiles,measurement,setting,value
CC1CC(C)CN(Cc2cc3c(cc2-c2cc4ccc5c(c4cn2)OCO5)OCO3)C1 (stereo unspecified),IC50,[1],9.51 µM
same,IC50,NCI-H1048 [2],1.42 µM
same,inhibition,NCI-H1048 [3],Dose-dependent-effect; Compound Effect Surpassed Etoposide Effect
same,AUC(0-t) at 24 h,[4],736 ng·h/mL
same,half-life,[5],3.38 h
same,inhibition,NCI-H1048 [6],Dose-dependent-effect; Displayed Stronger Inhibitory Effect Than Etoposide
same,Activity,[7],Non-toxic
same,Activity,[8],Toxic
same,Activity,NCI-H1048 [9],Dose-dependent-effect
same,MRT inf,[10],5.19 h
same,IC50,NCI-H146,22.8 µM
same,inhibition,NCI-H1048 [11],Dose-dependent-effect; Exhibited Superior Inhibitory Effect Compared To Etoposide At Same Concentration
same,Activity,[12],Non-toxic
same,Activity,NCI-H446 [13],Dose-dependent-effect
same,AUC(0-inf),[14],741 ng·h/mL
same,inhibition,NCI-H1048 [15],Dose-dependent-effect; Potent Inhibitory Effect At Equivalent Efficacy As Etoposide
same,Activity,[16],Non-toxic
same,Activity,NCI-H446 [17],Dose-dependent-effect
same,Activity,NCI-H446 [18],Dose-dependent-effect
same,LD50,[19],300 mg/kg
same,Activity,NCI-H1048 [20],Dose-dependent-effect
same,Activity,NCI-H446 [21],Active
same,IC50,NCI-H82,2.25 µM
same,Activity,NCI-H1048 [22],Dose-dependent-effect
same,inhibition,[23],Active
same,Activity,NCI-H446 [24],Active; Exhibited Markedly Slow Growth Rate
same,inhibition,Homo sapiens,Active; Exhibited Stronger Activity Against Topo Ii Compared To Topo I
same,Activity,NCI-H1048 [25],Dose-dependent-effect
same,inhibition,NCI-H446 [26],Dose-dependent-effect; Displayed Stronger Inhibitory Effect Than Etoposide
same,Activity,NCI-H446 [27],Dose-dependent-effect
same,IC50,NCI-H446 [28],1.3 µM
same,Activity,NCI-H446 [29],Dose-dependent-effect
same,Activity,NCI-H446 [30],Active
same,Activity,[31],Non-toxic
same,Activity,[32],Non-toxic
same,Cmax,[33],145 ng/mL
same,inhibition,NCI-H446 [34],Dose-dependent-effect; Exhibited Superior Inhibitory Effect Compared To Etoposide At Same Concentration
same,Activity,NCI-H446 [35],Dose-dependent-effect
same,Activity,[36],Non-toxic
same,Activity,NCI-H446 [37],Dose-dependent-effect
same,inhibition,[38],Active
same,IC50,NCI-H209,36.8 µM
same,Tmax,[39],0.25 h
CCC1CCCC(C)N1Cc1cc2c(cc1-c1cc3ccc4c(c3cn1)OCO4)OCO2 (stereo unspecified),IC50,[1],13.9 µM
same,IC50,NCI-H1048 [2],2.45 µM
same,inhibition,NCI-H1048 [3],Dose-dependent-effect; Compound Effect Surpassed Etoposide Effect
same,AUC(0-t) at 24 h,[4],1180 ng·h/mL
same,half-life,[5],4.86 h
same,inhibition,NCI-H1048 [6],Dose-dependent-effect
same,Activity,[7],Non-toxic
same,Activity,[8],Toxic
same,Activity,NCI-H1048 [9],Dose-dependent-effect
same,MRT inf,[10],6.14 h
same,IC50,NCI-H146,6.23 µM
same,inhibition,NCI-H1048 [11],Dose-dependent-effect
same,Activity,[12],Non-toxic
same,Activity,NCI-H446 [13],Dose-dependent-effect
same,AUC(0-inf),[14],1210 ng·h/mL
same,inhibition,NCI-H1048 [15],Dose-dependent-effect
same,Activity,[16],Non-toxic
same,Activity,NCI-H446 [17],Dose-dependent-effect
same,Activity,NCI-H446 [18],Dose-dependent-effect
same,LD50,[19],300 mg/kg
same,Activity,NCI-H1048 [20],Dose-dependent-effect
same,Activity,NCI-H446 [21],Active
same,IC50,NCI-H82,2.41 µM
same,Activity,NCI-H1048 [22],Dose-dependent-effect
same,inhibition,[23],Active
same,Activity,NCI-H446 [24],Active; Exhibited Markedly Slow Growth Rate
same,inhibition,Homo sapiens,Active; Exhibited Stronger Activity Against Topo Ii Compared To Topo I
same,Activity,NCI-H1048 [25],Dose-dependent-effect
same,inhibition,NCI-H446 [26],Dose-dependent-effect
same,Activity,NCI-H446 [27],Dose-dependent-effect
same,IC50,NCI-H446 [28],1.32 µM
same,Activity,NCI-H446 [29],Dose-dependent-effect
same,Activity,NCI-H446 [30],Active
same,Activity,[31],Non-toxic
same,Activity,[32],Non-toxic
same,Cmax,[33],228 ng/mL
same,inhibition,NCI-H446 [34],Dose-dependent-effect
same,Activity,NCI-H446 [35],Dose-dependent-effect
same,Activity,[36],Non-toxic
same,Activity,NCI-H446 [37],Dose-dependent-effect
same,inhibition,[38],Active
same,IC50,NCI-H209,11.6 µM
same,Tmax,[39],0.25 h
